Measurements from article PMC10811921 (Virology Journal, 2024).

Molecular target: T1, furin (Homo sapiens, UniProt P09958)
T1 construct: recombinant soluble human furin
Assay: fluorogenic protease assay with Pyr-RTKR-AMC substrate
Type: biochemical

T1 sequence (P09958 108-715): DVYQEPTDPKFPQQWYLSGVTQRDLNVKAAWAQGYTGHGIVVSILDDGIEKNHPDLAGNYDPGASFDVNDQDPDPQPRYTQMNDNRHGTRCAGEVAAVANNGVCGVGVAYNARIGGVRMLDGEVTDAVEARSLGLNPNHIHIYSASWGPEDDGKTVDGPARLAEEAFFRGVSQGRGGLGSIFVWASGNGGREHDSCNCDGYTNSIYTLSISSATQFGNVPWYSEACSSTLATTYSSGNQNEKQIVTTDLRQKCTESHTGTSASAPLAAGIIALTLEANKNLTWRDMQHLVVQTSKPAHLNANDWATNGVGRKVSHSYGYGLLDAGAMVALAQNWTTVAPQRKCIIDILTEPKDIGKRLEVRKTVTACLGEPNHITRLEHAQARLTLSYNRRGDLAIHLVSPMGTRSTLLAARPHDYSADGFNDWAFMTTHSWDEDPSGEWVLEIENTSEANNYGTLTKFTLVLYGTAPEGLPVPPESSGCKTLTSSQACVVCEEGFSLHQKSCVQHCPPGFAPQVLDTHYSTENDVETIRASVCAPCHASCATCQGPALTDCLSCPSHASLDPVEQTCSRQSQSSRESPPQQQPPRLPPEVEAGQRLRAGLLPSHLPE

O=c1c(O)c(-c2ccc(O)c(O)c2)oc2cc(O)cc(O)c12 [QC, quercetin]
IC50: ~116 µM
